Reference: patent US20230250108A1, “TETRAHYDROISOQUINOLINE COMPOUNDS AND USE THEREOF” (JIANGSU SIMCERE PHARMACEUTICAL CO., LTD., priority 2020, published 2023)
Counter-ions that a name gives are not always drawn.

molecular target: T1, PRMT5/MEP50 (Homo sapiens, UniProt O14744); assay: PRMT5 enzymatic activity inhibition experiment (AlphaScreen); type: biochemical; conditions: PRMT5/MEP50, Histone H4 peptide substrate; read-out: Inhibition of enzymatic activity IC50
T1 construct: purchased BPS Bioscience Inc. (USA)
Description: Materials: PRMT5/MEP50 proteins were purchased from BPS Bioscience Inc. (USA); Histone H4 Peptide substrate was purchased from Sangon Biotech (Shanghai) Co., Ltd.; Anti-Histone H4 (symmetric dimethyl R3) antibody—ChIP Grade was purchased from Abcam PLC. (USA); S-(5′-Adenosyl)-L-methionine chloride dihydrochloride was purchased from Sigma PLC. (USA); 384-well plate, AlphaScreen Streptavidin Donor beads, AlphaScreen Protein A Acceptor beads, and Envision 2104 multi-label Reader were purchased from Perkin-Elmer Instruments (USA) Corporation; and Echo 550 Liquid Handler was purchased from Labcyte Inc. (USA).
Enzymatic activity assay: The compounds were added into a 384-well plate by using the Echo 550 Liquid Handler with the final concentration of 0-1000 nM (initial concentration: 1000 nM, 3-fold dilution, for 10 points), and the DMSO content was 0.5%. 10 μL of a 2× PRMT5/MEP50 solution was added into each well and incubated at room temperature for 30 minutes. 10 μL of 2× PRMT5/MEP50 substrate solution was added to each well to start the reaction and incubated at room temperature for 60 minutes. A 6× detection reagent containing AlphaScreen Protein A Acceptor beads and Anti-Histone H4 (symmetric dimethyl R3) antibodies was prepared and 5 μL was added to each well. The plate was incubated at room temperature for 60 minutes. A 6× detection reagent containing AlphaScreen Streptavidin Donor beads was prepared and 5 μL was added to each well. The plate was incubated at room temperature for 60 minutes. The signal values were detected by using the Envision.

T1 sequence (O14744 2-637 limits assumed): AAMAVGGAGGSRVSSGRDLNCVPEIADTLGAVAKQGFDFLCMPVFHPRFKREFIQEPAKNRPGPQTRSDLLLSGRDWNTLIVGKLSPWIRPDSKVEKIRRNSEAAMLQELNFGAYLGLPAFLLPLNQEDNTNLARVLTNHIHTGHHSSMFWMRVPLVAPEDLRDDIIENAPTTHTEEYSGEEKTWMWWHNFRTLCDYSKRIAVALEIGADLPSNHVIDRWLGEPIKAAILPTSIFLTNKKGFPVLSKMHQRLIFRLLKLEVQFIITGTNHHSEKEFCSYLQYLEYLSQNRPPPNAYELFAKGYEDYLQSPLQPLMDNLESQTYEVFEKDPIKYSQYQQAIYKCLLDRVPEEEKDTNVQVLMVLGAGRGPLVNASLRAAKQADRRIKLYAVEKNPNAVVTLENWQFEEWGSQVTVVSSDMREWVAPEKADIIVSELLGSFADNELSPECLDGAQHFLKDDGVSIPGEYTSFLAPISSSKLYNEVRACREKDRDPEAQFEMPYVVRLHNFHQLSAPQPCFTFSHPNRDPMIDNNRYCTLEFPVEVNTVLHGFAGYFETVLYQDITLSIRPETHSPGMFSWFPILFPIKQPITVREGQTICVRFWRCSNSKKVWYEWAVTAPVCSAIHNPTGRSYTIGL
T1 sequence (Q9BQA1 2-342 partner limits assumed): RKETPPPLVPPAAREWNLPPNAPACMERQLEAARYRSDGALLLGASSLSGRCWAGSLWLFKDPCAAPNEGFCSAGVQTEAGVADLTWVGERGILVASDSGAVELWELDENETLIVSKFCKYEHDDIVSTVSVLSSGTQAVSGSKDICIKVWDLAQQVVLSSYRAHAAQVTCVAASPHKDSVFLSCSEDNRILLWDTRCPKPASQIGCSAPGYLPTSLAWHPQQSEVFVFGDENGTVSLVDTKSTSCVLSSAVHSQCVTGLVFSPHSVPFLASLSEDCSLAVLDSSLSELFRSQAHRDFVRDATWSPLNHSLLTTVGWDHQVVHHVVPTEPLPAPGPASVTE

Row | Structure (SMILES) | IC50 [nM]
1 | O=C1c2ccc(C(=O)N3C4CCC3COC4)cc2OCCN1C[C@@H](O)[C@@H]1Cc2ccccc2CN1 [Compound 007, 8-(3-oxa-8-azabicyclo[3.2.1]octane-8-carbonyl)-4-((R)-2-hydroxy-2-((S)-1,2,3,4-tetrahydroisoquinolin-3-yl)ethyl)-3,4-dihydrobenzo[f][1,4]oxazepin-5(2H)-one] | 7.66

system: Z-138 cells; assay: Inhibitory activity on tumor cell proliferation (Cell-Titer Glo, 8 days); type: cell-based; conditions: Homo sapiens, 192 h, read-out: Inhibition of cell proliferation Z-138 IC50
Method: Materials and cells: Z-138 cells were purchased from ATCC (USA); IMDM medium and penicillin-streptomycin were purchased from Sigma PLC. (USA); horse serum was purchased from Hyclone (USA); 96-well plate was purchased from Corning (USA); and Cell-Titer Glo reagent was purchased from Promega (USA).
Cell culture: Z-138 cells were cultured in an IMDM culture solution containing 10% Horse serum+1% penicillin−streptomycin at 37° C., 5% CO2. Cells in logarithmic growth phase were suitable for the experiment.
Detection of cell proliferation activity: The inhibitory activities of the compounds on the proliferation of Z-138 cells were detected by using the Cell-Titer Glo reagent. The concentrations of the cells were adjusted, and 180 μL was inoculated in each well of the 96-well plate (500/well) and equilibrated for 10-15 minutes at 37° C., 5% CO2. 20 μL of a culture solution containing the compounds was added into each well with the final concentration reaching 0-300 nM (initial concentration: 300 nM, 3-fold dilution, for 10 points), and the DMSO content was 0.1%. The cell plate was placed at 37° C., 5% CO2 and incubated for 8 days. Culture solution was replaced at day 4: 100 μL of the supernatant was slowly aspirated and 100 μL of a fresh culture solution containing the compounds was provided as a supplement while the concentrations of the compounds were held constant. The cell viability was detected by using the Cell-Titer Glo reagent.

Row | Structure (SMILES) | IC50 [nM]
2 | CCN1CCN(C[C@@H](O)[C@@H]2Cc3ccccc3CN2)C(=O)c2ccc(C(=O)N(C)Cc3ccccc3)cc21 [Compound 016, N-benzyl-1-ethyl-4-((R)-2-hydroxy-2-((S)-1,2,3,4-tetrahydroisoquinolin-3-yl)ethyl)-N-methyl-5-oxo-2,3,4,5-tetrahydro-1H-benzo[e][1,4]diaza-8-carboxamide hydrochloride] | 45.1
3 | CCN1CCN(C[C@@H](O)[C@@H]2Cc3ccccc3CN2)C(=O)c2ccc(C(=O)N(C)CCc3cccnc3)cc21 [Compound 018, 1-ethyl-4-((R)-2-hydroxy-2-((S)-1,2,3,4-tetrahydroisoquinolin-3-yl)ethyl)-N-methyl-5-oxo-N-(2-(pyridin-3-yl)ethyl)-2,3,4,5-tetrahydro-1H-benzo[e][1,4]diazepine-8-carboxamide hydrochloride] | 26
4 | O=C1c2ccc(C(=O)N3C4CCC3COC4)cc2OCCN1C[C@@H](O)[C@@H]1Cc2ccccc2CN1 [Compound 007, 8-(3-oxa-8-azabicyclo[3.2.1]octane-8-carbonyl)-4-((R)-2-hydroxy-2-((S)-1,2,3,4-tetrahydroisoquinolin-3-yl)ethyl)-3,4-dihydrobenzo[f][1,4]oxazepin-5(2H)-one] | 7.55
5 | CCN(CC)C(=O)c1ccc2c(c1)N(CC)CCN(C[C@@H](O)[C@@H]1Cc3ccccc3CN1)C2=O [Compound 019, N,N,1-triethyl-4-((R)-2-hydroxy-2-((S)-1,2,3,4-tetrahydroisoquinolin-3-yl)ethyl)-5-oxo-2,3,4,5-tetrahydro-1H-benzo[e][1,4]diazepine-8-carboxamide hydrochloride] | 20.4
6 | CCN1CCN(C[C@@H](O)[C@@H]2Cc3ccccc3CN2)C(=O)c2ccc(C(=O)N3CC4(COC4)C3)cc21 [Compound 025, 1-ethyl-4-((R)-2-hydroxy-2-((S)-1,2,3,4-tetrahydroisoquinolin-3-yl)ethyl)-8-(2-oxa-6-azaspiro[3.3]heptane-6-carbonyl)-1,2,3,4-tetrahydro-5H-benzo[e][1,4]diazepin-5-one] | 138
7 | CCN1CCN(C[C@@H](O)[C@@H]2Cc3ccccc3CN2)C(=O)c2ccc(C(=O)N3C4CCCC3COC4)cc21 [Compound 020, 8-(3-oxa-9-azabicyclo[3,3,1]nonane-9-carbonyl)-1-ethyl-4-((R)-2-hydroxy-2-((S)-1,2,3,4-tetrahydroisoquinolin-3-yl)ethyl)-1,2,3,4-tetrahydro-5H-benzo[e][1,4]diazepin-5-one hydrochloride] | 3.71
8 | CCN1CCN(C[C@@H](O)[C@@H]2Cc3ccccc3CN2)C(=O)c2ccc(C(=O)N(C)CCc3ccc(F)cc3)cc21 [Compound 017, 1-ethyl-N-(4-fluorophenethyl)-4-((R)-2-hydroxy-2-((S)-1,2,3,4-tetrahydroisoquinolin-3-yl)ethyl)-N-methyl-5-oxo-2,3,4,5-tetrahydro-1H-benzo[e][1,4]diazepine-8-carboxamide hydrochloride] | 27.6
9 | CCN1CCN(C[C@@H](O)[C@@H]2Cc3ccccc3CN2)C(=O)c2ccc(C(=O)N3C4CCC3CC(O)C4)cc21 (stereo partly drawn) [Compound 022, 1-ethyl-4-((R)-2-hydroxy-2-((S)-1,2,3,4-tetrahydroisoquinolin-3-yl)ethyl)-8-(3-hydroxy-8-azabicyclo[3.2.1]octane-8-carbonyl)-1,2,3,4-tetrahydro-5H-benzo[e][1,4]diazepin-5-one hydrochloride] | 14.7
10 | CCN1CCN(C[C@@H](O)[C@@H]2Cc3ccccc3CN2)C(=O)c2ccc(C(=O)N3CC4COCC4C3)cc21 (stereo partly drawn) [Compound 023, 1-ethyl-8-(hexahydro-1H-furo[3,4-c]pyrrole-5-carbonyl)-4-((R)-2-hydroxy-2-((S)-1,2,3,4-tetrahydroisoquinolin-3-yl)ethyl)-1,2,3,4-tetrahydro-5H-benzo[e][1,4]diazepin-5-one hydrochloride] | 16.8
11 | CCN1CCN(C[C@@H](O)[C@@H]2Cc3ccccc3CN2)C(=O)c2ccc(C(=O)N3CCOCC3)cc21 [Compound 014, 1-ethyl-4-((R)-2-hydroxy-2-((S)-1,2,3,4-tetrahydroisoquinolin-3-yl)ethyl)-8-(morpholine-4-carbonyl)-1,2,3,4-tetrahydro-5H-benzo[e][1,4]diazepin-5-one hydrochloride] | 11.7

The next lines start with the values.

Row | IC50 [nM] | Structure (SMILES)
12 | 2.36 | Cl.[2H]C([2H])([2H])OC1CC2(CCN(C(=O)c3ccc4c(c3)N(CC)CCN(C[C@@H](O)[C@@H]3Cc5ccccc5CN3)C4=O)CC2)C1 [Compound 027, 1-ethyl-4-((R)-2-hydroxy-2-((S)-1,2,3,4-tetrahydroisoquinolin-3-yl)ethyl)-8-(2-(methoxy-d3)-7-azaspiro[3.5]nonane-7-carbonyl)-1,2,3,4-tetrahydro-5H-benzo[e][1,4]diazepin-5-one hydrochloride]
13 | 8.35 | CCN1CCN(C[C@@H](O)[C@@H]2Cc3ccccc3CN2)C(=O)c2ccc(C(=O)N3CCC4(CC3)CC(N(C)C)C4)cc21 [Compound 021, 8-(2-(dimethylamino)-7-azaspiro[3.5]nonane-7-carbonyl)-1-ethyl-4-((R)-2-hydroxy-2-((S)-1,2,3,4-tetrahydroisoquinolin-3-yl)ethyl)-1,2,3,4-tetrahydro-5H-benzo[e][1,4]diazepin-5-one hydrochloride]
14 | 1.93 | CCN1CCN(C[C@@H](O)[C@@H]2Cc3ccccc3CN2)C(=O)c2ccc(C(=O)N3CCC4(CCOCC4)C3)cc21 [Compound 010, 1-ethyl-4-((R)-2-hydroxy-2-((S)-1,2,3,4-tetrahydroisoquinolin-3-yl)ethyl)-8-(8-oxa-2-azaspiro[4.5]decane-2-carbonyl)-1,2,3,4-tetrahydro-5H-benzo[e][1,4]diazepin-5-one hydrochloride]
15 | 11.1 | CCN1CCN(C[C@@H](O)[C@@H]2Cc3ccccc3CN2)C(=O)c2ccc(C(=O)N3CCN(C(C)=O)CC3)cc21 [Compound 015, 8-(4-acetylpiperazine-1-carbonyl)-1-ethyl-4-((R)-2-hydroxy-2-((S)-1,2,3,4-tetrahydroisoquinolin-3-yl)ethyl)-1,2,3,4-tetrahydro-5H-benzo[e][1,4]diazepin-5-one hydrochloride]
16 | 4.09 | CCN1CCN(C[C@@H](O)[C@@H]2Cc3ccccc3CN2)C(=O)c2ccc(C(=O)N3CCC4(CC4)C(F)(F)C3)cc21 [Compound 012, 8-(4,4-difluoro-6-azaspiro[2.5]octane-6-carbonyl)-1-ethyl-4-((R)-2-hydroxy-2-((S)-1,2,3,4-tetrahydroisoquinolin-3-yl)ethyl)-1,2,3,4-tetrahydro-5H-benzo[e][1,4]diazepin-5-one hydrochloride]
17 | 2.2 | CCN1CCN(C[C@@H](O)[C@@H]2Cc3ccccc3CN2)C(=O)c2ccc(C(=O)N3CC4(CCC(OC)CC4)C3)cc21 [Compound 011, 1-ethyl-4-((R)-2-hydroxy-2-((S)-1,2,3,4-tetrahydroisoquinolin-3-yl)ethyl)-8-(7-methoxy-2-azaspiro[3.5]nonane-2-carbonyl)-1,2,3,4-tetrahydro-5H-benzo[e][1,4]diazepin-5-one hydrochloride]
18 | 5.62 | CCN1CCN(C[C@@H](O)[C@@H]2Cc3ccccc3CN2)C(=O)c2ccc(C(=O)N3CCC4(CC3)CC(=O)C4)cc21 [Compound 026, 1-ethyl-4-((R)-2-hydroxy-2-((S)-1,2,3,4-tetrahydroisoquinolin-3-yl)ethyl)-8-(2-oxo-7-azaspiro[3.5]nonane-7-carbonyl)-1,2,3,4-tetrahydro-5H-benzo[e][1,4]diazepin-5-one]
19 | 2.37 | CCN1CCN(C[C@@H](O)[C@@H]2Cc3ccccc3CN2)C(=O)c2ccc(C(=O)N3CCC4(CC3)CC4(F)F)cc21 [Compound 013, 8-(1,1-difluoro-6-azaspiro[2.5]octane-6-carbonyl)-1-ethyl-4-((R)-2-hydroxy-2-((S)-1,2,3,4-tetrahydroisoquinolin-3-yl)ethyl)-1,2,3,4-tetrahydro-5H-benzo[e][1,4]diazepin-5-one hydrochloride]
